“And” between values parts separate entries of the source, which are not always exact repeats. Equal entries are not always repeated. Toxic doses and inconclusive results are not listed. Rule as the data show it: active = T/C of 150% or more; inactive = T/C below 125%.
Tested on: L1210 leukemia ip in BDF1 mice, survival T/C
Assay: NCI In Vivo Anticancer Drug Screen. Data for tumor model L1210 Leukemia (intraperitoneal) in B6D2F1 (BDF1) mice
Details: endpoint: mean survival time, higher = longer survival
Method in brief: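 Read-out is survival time, reported as the treated-group measurement over the vehicle-control measurement.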

[1] = dose: 20.0 mg/kg/injection, schedule: Q01DX001 (ip), vehicle: saline
[2] = dose: 40.0 mg/kg/injection, schedule: Q01DX001 (ip), vehicle: saline
[3] = dose: 100.0 mg/kg/injection, schedule: Q01DX009 (ip), vehicle: saline with Tween-80
[4] = dose: 100.0 mg/kg/injection, schedule: Q04DX003 (ip), vehicle: saline
[5] = dose: 200.0 mg/kg/injection, schedule: Q01DX009 (ip), vehicle: saline with Tween-80
[6] = dose: 200.0 mg/kg/injection, schedule: Q04DX003 (ip), vehicle: saline
[7] = dose: 400.0 mg/kg/injection, schedule: Q04DX003 (ip), vehicle: saline
[8] = dose: 100.0 mg/kg/injection, schedule: Q04DX003 (ip), vehicle: Klucel (hydroxypropylcellulose) (HPC)
[9] = dose: 200.0 mg/kg/injection, schedule: Q04DX003 (ip), vehicle: Klucel (hydroxypropylcellulose) (HPC)
[10] = dose: 400.0 mg/kg/injection, schedule: Q04DX003 (ip), vehicle: Klucel (hydroxypropylcellulose) (HPC)
[11] = dose: 100.0 mg/kg/injection, schedule: Q04DX003 (ip), vehicle: acetone
[12] = dose: 400.0 mg/kg/injection, schedule: Q04DX003 (ip), vehicle: acetone
[13] = dose: 100.0 mg/kg/injection, schedule: Q01DX009 (ip), vehicle: Klucel (hydroxypropylcellulose) (HPC)
[14] = dose: 200.0 mg/kg/injection, schedule: Q01DX009 (ip), vehicle: Klucel (hydroxypropylcellulose) (HPC)
[15] = dose: 400.0 mg/kg/injection, schedule: Q01DX009 (ip), vehicle: Klucel (hydroxypropylcellulose) (HPC)
[16] = dose: 100.0 mg/kg/injection, schedule: Q04DX002 (ip), vehicle: Klucel (hydroxypropylcellulose) (HPC)
[17] = dose: 200.0 mg/kg/injection, schedule: Q04DX002 (ip), vehicle: Klucel (hydroxypropylcellulose) (HPC)
[18] = dose: 50.0 mg/kg/injection, schedule: Q01DX009 (ip), vehicle: saline with Tween-80
[19] = dose: 50.0 mg/kg/injection, schedule: Q01DX001 (ip), vehicle: carboxymethylcellulose (CMC)
[20] = dose: 100.0 mg/kg/injection, schedule: Q01DX001 (ip), vehicle: carboxymethylcellulose (CMC)
[21] = dose: 200.0 mg/kg/injection, schedule: Q01DX001 (ip), vehicle: carboxymethylcellulose (CMC)
[22] = dose: 400.0 mg/kg/injection, schedule: Q01DX001 (ip), vehicle: carboxymethylcellulose (CMC)

Measured: T/C

Cc1ncnc2[nH]c(=S)[nH]c12
inactive: dose: 75.0 mg/kg/injection, schedule: Q01DX001 (ip), vehicle: saline 105 % of control | dose: 150.0 mg/kg/injection, schedule: Q01DX001 (ip), vehicle: saline 101 % of control | dose: 300.0 mg/kg/injection, schedule: Q01DX001 (ip), vehicle: saline 100 % of control

CCC/C=C/CCN1CC1
inactive: [1] 97 % of control | [2] 97 % of control | dose: 100.0 mg/kg/injection, schedule: Q01DX001 (ip), vehicle: saline 86 % of control

CC(C)C(O)C1(C)CC1 (centres undefined)
inactive: [3] 96 % of control | [4] 106 % of control | [5] 95 % of control | [6] 107 % of control | [7] 111 % of control

O=C(O)COc1ccc(Cl)cc1C(=O)O
inactive: [8] 96 % of control | [9] 104 % of control | [10] 101 % of control

CC(C)(C)NP(=O)(NC(C)(C)C)c1ccc([N+](=O)[O-])cc1
inactive: [11] 100 % of control | [12] 93 % of control

CCCCCCCCCCCCCCCCCC(=O)OCCCCCCC
inactive: [13] 102 % of control | [14] 102 % of control | [15] 112 % of control

CC1=C/C(=N/Nc2ccc([N+](=O)[O-])cc2[N+](=O)[O-])CCC1
inactive: dose: 50.0 mg/kg/injection, schedule: Q01DX009 (ip), vehicle: acetone 93 % of control | dose: 100.0 mg/kg/injection, schedule: Q01DX009 (ip), vehicle: acetone 88 % of control | [11] 93 % of control | dose: 200.0 mg/kg/injection, schedule: Q04DX003 (ip), vehicle: acetone 86 % of control | [12] 86 % of control

O=C(Nc1ccccc1F)C(Cl)(Cl)Cl
inactive: [16] 104 % of control | [17] 104 % of control

COc1ccc(OC(=O)Nc2ccc(OC)cc2OC)cc1
inactive: [13] 97 % of control | [14] 104 % of control | [15] 96 % of control

CN=C(c1ccc(NC(=O)c2ccc(C(=O)Nc3ccc(C(=NC)N4CCOCC4)cc3)c(Cl)c2)cc1)N1CCOCC1
inactive: dose: 0.94 mg/kg/injection, schedule: Q01DX Z (ip), vehicle: carboxymethylcellulose (CMC) 104 % of control | dose: 1.87 mg/kg/injection, schedule: Q01DX Z (ip), vehicle: carboxymethylcellulose (CMC) 101 % of control | dose: 3.75 mg/kg/injection, schedule: Q01DX Z (ip), vehicle: carboxymethylcellulose (CMC) 98 % of control | dose: 7.5 mg/kg/injection, schedule: Q01DX Z (ip), vehicle: carboxymethylcellulose (CMC) 87 % of control | dose: 15.0 mg/kg/injection, schedule: Q01DX Z (ip), vehicle: carboxymethylcellulose (CMC) 91 % of control | dose: 30.0 mg/kg/injection, schedule: Q01DX Z (ip), vehicle: carboxymethylcellulose (CMC) 91 % of control | dose: 60.0 mg/kg/injection, schedule: Q01DX Z (ip), vehicle: carboxymethylcellulose (CMC) 91 % of control

CCN(CC)S(=O)(=O)c1ccc(OC)c(N)c1
inactive: [13] 98 % of control | dose: 100.0 mg/kg/injection, schedule: Q04DX003 (ip), vehicle: other 96 % of control | [14] 96 % of control | dose: 200.0 mg/kg/injection, schedule: Q04DX003 (ip), vehicle: other 104 % of control | [15] 104 % of control | dose: 400.0 mg/kg/injection, schedule: Q04DX003 (ip), vehicle: other 100 % of control

O=C(O)C1C2CC3CC(C2)CC1C3 (centres undefined)
inactive: [16] 105 % of control | [17] 94 % of control and 110 % of control | dose: 400.0 mg/kg/injection, schedule: Q04DX002 (ip), vehicle: Klucel (hydroxypropylcellulose) (HPC) 113 % of control | dose: 600.0 mg/kg/injection, schedule: Q04DX002 (ip), vehicle: Klucel (hydroxypropylcellulose) (HPC) 94 % of control

Cc1cc(C(=O)O)ccc1S(=O)(=O)F
inactive: dose: 25.0 mg/kg/injection, schedule: Q01DX009 (ip), vehicle: saline with Tween-80 96 % of control | [18] 102 % of control | [3] 92 % of control and 100 % of control

CCC1C/C(=C\NC(N)=O)C(=O)O1 (centres undefined)
inactive: [3] 96 % of control | dose: 100.0 mg/kg/injection, schedule: Q04DX003 (ip), vehicle: saline with Tween-80 96 % of control | [5] 100 % of control | dose: 200.0 mg/kg/injection, schedule: Q04DX003 (ip), vehicle: saline with Tween-80 104 % of control | dose: 400.0 mg/kg/injection, schedule: Q01DX009 (ip), vehicle: saline with Tween-80 100 % of control | dose: 400.0 mg/kg/injection, schedule: Q04DX003 (ip), vehicle: saline with Tween-80 101 % of control

CN(C)c1ccc(/C=N/Nc2nnc(N/N=C/c3ccc(N(C)C)cc3)c3ccccc23)cc1
inactive: [19] 98 % of control and 91 % of control | [20] 86 % of control | [21] 93 % of control and 91 % of control | [22] 100 % of control and 104 % of control

Nn1cnnc1
inactive: dose: 25.0 mg/kg/injection, schedule: Q01DX009 (ip), vehicle: saline 93 % of control | dose: 50.0 mg/kg/injection, schedule: Q01DX009 (ip), vehicle: saline 103 % of control | dose: 100.0 mg/kg/injection, schedule: Q01DX009 (ip), vehicle: saline 86 % of control and 88 % of control | [4] 104 % of control | [6] 96 % of control | [7] 102 % of control

O=c1[nH]cnc2nc(-c3cccc([N+](=O)[O-])c3)[nH]c12
inactive: dose: 100.0 mg/kg/injection, schedule: Q04DX003 (ip), vehicle: gum acacia 102 % of control | dose: 200.0 mg/kg/injection, schedule: Q04DX003 (ip), vehicle: gum acacia 92 % of control | dose: 400.0 mg/kg/injection, schedule: Q04DX003 (ip), vehicle: gum acacia 96 % of control

Cc1cc(C)n2[nH]c(=O)cc2n1
inactive: dose: 100.0 mg/kg/injection, schedule: Q04DX002 (ip), vehicle: saline with Tween-80 98 % of control | dose: 200.0 mg/kg/injection, schedule: Q04DX002 (ip), vehicle: saline with Tween-80 104 % of control | dose: 400.0 mg/kg/injection, schedule: Q04DX002 (ip), vehicle: saline with Tween-80 106 % of control

CN(C)C(=S)SCNC(=S)NCSC(=S)N(C)C
inactive: [8] 106 % of control | [9] 96 % of control | [10] 98 % of control

CCOC(=O)C1(Cl)OC(Cl)(Cl)C(Cl)C1Cl (centres undefined)
inactive: dose: 10.0 mg/kg/injection, schedule: Q01DX001 (ip), vehicle: saline 92 % of control | [1] 90 % of control | [2] 103 % of control | dose: 80.0 mg/kg/injection, schedule: Q01DX001 (ip), vehicle: saline 90 % of control

OCC1N=C(c2ccccc2)OC1c1ccccc1 (centres undefined)
inactive: [18] 94 % of control | [3] 102 % of control | [5] 96 % of control

CCOC(=O)CNC(=O)C(=[N+]=[N-])C(=O)COc1ccc(F)cc1
inactive: [19] 104 % of control | [20] 95 % of control | [21] 101 % of control | [22] 90 % of control

C=COCCCCCC(C)C
inactive: dose: 50.0 mg/kg/injection, schedule: Q01DX009 (ip), vehicle: Klucel (hydroxypropylcellulose) (HPC) 96 % of control | [13] 106 % of control | [8] 107 % of control | [14] 91 % of control | [9] 105 % of control | [10] 104 % of control

NP(=S)(Oc1ccc(Cl)cc1)Oc1ccc(Cl)cc1
inactive: dose: 6.25 mg/kg/injection, schedule: Q01DX009 (ip), vehicle: gum acacia 103 % of control | dose: 12.5 mg/kg/injection, schedule: Q01DX009 (ip), vehicle: gum acacia 110 % of control | dose: 12.5 mg/kg/injection, schedule: Q04DX002 (ip), vehicle: gum acacia 87 % of control | dose: 25.0 mg/kg/injection, schedule: Q01DX009 (ip), vehicle: gum acacia 100 % of control | dose: 25.0 mg/kg/injection, schedule: Q04DX002 (ip), vehicle: gum acacia 87 % of control | dose: 100.0 mg/kg/injection, schedule: Q04DX002 (ip), vehicle: saline 93 % of control | dose: 200.0 mg/kg/injection, schedule: Q04DX002 (ip), vehicle: saline 101 % of control | dose: 400.0 mg/kg/injection, schedule: Q04DX002 (ip), vehicle: saline 96 % of control

From PubChem BioAssay AID248 (DTP/NCI, 2004)
